Where a name gives a salt, the structure may show the parent alone. Read-outs that look alike come from different tables or passages of the source.
How the values were obtained:
[1] = rcm bond, Grubbs II (20 mol%)/benzoquinone, toluene
[2] = system: A. baumannii ATCC 19606 (HAV#010); test: MIC by broth microdilution (CLSI); type: cell-based; settings: for MIC: Acinetobacter baumannii, ATCC19606, 24 h, read-out: MIC A. baumannii ATCC 19606
Protocol: (§1) Minimum inhibitory concentrations (MICs) were determined by the broth microdilution method following the Clinical and Laboratory Standards Institute (CLSI) guidelines. Test organisms consisted of standard reference strains from the American Type Culture Collection (ATCC; Manassa, VA, USA) and clinical isolates obtained from JMI Laboratories Inc. (North Liberty, IA, USA), Micromyx repository (MMX; Kalamazoo, MI, USA), and Massachusetts Eye and Ear Hospital (Boston, USA). Before the start of the MIC experiment, standard and test compound stock solutions were prepared in dimethyl sulfoxide (DMSO, Aldrich D2650) at a stock concentration of 2,560 μg/mL. The compound concentration range typically employed for each experiment was 64-0.06 μg/mL (2.5% final DMSO concentration). Iboxamycin was used as a comparator in all experiments. All bacterial strains were sub-cultured on blood agar plates (tryptic soy agar with 5% sheep blood, Hardy Diagnostics) and incubated overnight at 35° C. Organisms were suspended in cation-adjusted Mueller-Hinton broth (CaMHB, BD 212322) and optical density was adjusted to 0.5 McFarland standard. Suspensions were further diluted to obtain a final inoculum of 5×10^5 CFU/mL for broth microdilution experiments. The minimum concentration of compound required to inhibit visible bacterial growth after 24 h of incubation was recorded as the MIC in μg/mL. MICs for P. aeruginosa were recorded in cation-adjusted Mueller-Hinton broth which had been pre-treated with Chelex 100 ion exchange resin according to procedures reported in Ito et al. Antimicrob Agents Chemother (2016) 60 (12), 7396-7401.

[3] = system: E. coli ATCC 25922 (HAV#006); test: MIC by broth microdilution (CLSI); type: cell-based; settings: for MIC: Escherichia coli, ATCC25922, 24 h, read-out: MIC E. coli ATCC 25922
Protocol: as §1

[4] = system: E. coli lptD mutant; test: MIC by broth microdilution (CLSI); type: cell-based; settings: CaMHB, 24 h incubation; for MIC: Escherichia coli, 24 h, read-out: MIC E. coli lptD mutant, lptD mutant / ΔlptD mutant
Protocol: as §1

[5] = system: E. coli ΔtolC; test: MIC by broth microdilution (CLSI); type: cell-based; settings: CaMHB, 24 h incubation; for MIC: Escherichia coli, 24 h, read-out: MIC E. coli ΔtolC, ΔtolC
Protocol: as §1

[6] = system: E. faecalis ATCC 29212 (HAV#005); test: MIC by broth microdilution (CLSI); type: cell-based; settings: for MIC: Enterococcus faecalis, ATCC29212, 24 h, read-out: MIC E. faecalis ATCC 29212
Protocol: as §1

[7] = system: E. faecium JMI-990536; test: MIC by broth microdilution (CLSI); type: cell-based; settings: for MIC: Enterococcus faecium, JMI990536, 24 h, read-out: MIC E. faecium JMI-990536
Protocol: as §1

[8] = system: K. pneumoniae JMI-991193; test: MIC by broth microdilution (CLSI); type: cell-based; settings: for MIC: Klebsiella pneumoniae, JMI991193, 24 h, read-out: MIC K. pneumoniae JMI-991193
Protocol: as §1

[9] = system: S. aureus ATCC 29213 (HAV#001); test: MIC by broth microdilution (CLSI); type: cell-based; settings: for MIC: Staphylococcus aureus, ATCC29213, 24 h, read-out: MIC S. aureus ATCC 29213
Protocol: as §1

[10] = system: S. aureus Clinical (cfr); test: MIC by broth microdilution (CLSI); type: cell-based; settings: for MIC: Staphylococcus aureus, 24 h, read-out: MIC S. aureus Clinical (cfr)
Protocol: as §1

[11] = system: S. aureus MMX 3035; test: MIC by broth microdilution (CLSI); type: cell-based; settings: for MIC: Staphylococcus aureus, MMX3035, 24 h, read-out: MIC S. aureus MMX 3035
Protocol: as §1

[12] = HAV#010, ATCC 19606, CaMHB, 24 h incubation
[13] = HAV#006, ATCC 25922, CaMHB, 24 h incubation
[14] = HAV#005, ATCC 29212, CaMHB, 24 h incubation
[15] = JMI-990536, CaMHB, 24 h incubation
[16] = JMI-991193, CaMHB, 24 h incubation
[17] = HAV#001, ATCC 29213, CaMHB, 24 h incubation
[18] = Clinical (cfr), CaMHB, 24 h incubation
[19] = MMX 3035, CaMHB, 24 h incubation

| SMILES | MIC [2, 12] [µg/mL] | MIC [3, 13] [µg/mL] | MIC [4] [µg/mL] | MIC [5] [µg/mL] | MIC [6, 14] [µg/mL] | MIC [7, 15] [µg/mL] | MIC [8, 16] [µg/mL] | MIC [9, 17] [µg/mL] | MIC [10, 18] [µg/mL] | MIC [11, 19] [µg/mL] | further results |
| --- | --- | --- | --- | --- | --- | --- | --- | --- | --- | --- | --- |
| CC(C)(C)[S@@](=O)N[C@@H]1C/C=C\CC(CO[Si](C)(C)C(C)(C)C)S[C@H]2O[C@H]1[C@H](OC(=O)c1ccccc1)[C@H](OC(=O)c1ccccc1)[C@H]2OC(=O)c1ccccc1 (stereo partly shown) | – | – | – | – | – | – | – | – | – | – | ring closure, isolated yield ([1]; from C=CCC(CO[Si](C)(C)C(C)(C)C)S[C@H]1O[C@H]([C@@H](CC=C)N[S@](=O)C(C)(C)C)[C@H](OC(=O)c2ccccc2)[C@H](OC(=O)c2ccccc2)[C@H]1OC(=O)c1ccccc1, 10-membered ring, 1.0 mM, 0.25 h): 85% |
| CC(=O)O[C@@H]1[C@H](OC(C)=O)[C@@H](OC(C)=O)[C@@H]2O[C@@H]1[C@H](N[S@](=O)C(C)(C)C)C(C)/C=C/CCCCS2 (stereo partly shown) | – | – | – | – | – | – | – | – | – | – | ring closure, isolated yield ([1]; from C=CCCCCS[C@H]1O[C@H]([C@H](N[S@](=O)C(C)(C)C)[C@H](C)C=C)[C@H](OC(C)=O)[C@H](OC(C)=O)[C@H]1OC(C)=O, 12-membered ring, 2.0 mM, 0.25 h): 64.8% |
| C[C@@H]1/C=C\C[C@@H](CO[Si](C)(C)C(C)(C)C)S[C@H]2O[C@H]([C@@H]1N[S@](=O)C(C)(C)C)[C@H](OC(=O)c1ccccc1)[C@H](OC(=O)c1ccccc1)[C@H]2OC(=O)c1ccccc1 | – | – | – | – | – | – | – | – | – | – | ring closure, isolated yield ([1]; from C=CCC(CO[Si](C)(C)C(C)(C)C)S[C@H]1O[C@H]([C@H](N[S@](=O)C(C)(C)C)C(C)C=C)[C@H](OC(=O)c2ccccc2)[C@H](OC(=O)c2ccccc2)[C@H]1OC(=O)c1ccccc1, 10-membered ring, 2.0 mM, 0.25 h): 85% |
| O=C(N[C@@H]1C/C=C\CCS[C@H]2O[C@H]1[C@H](O)[C@H](O)[C@H]2O)C(F)(F)F | – | – | – | – | – | – | – | – | – | – | ring closure, isolated yield ([1]; from C=CCCS[C@H]1O[C@H]([C@@H](CC=C)NC(=O)C(F)(F)F)[C@H](O)[C@H](O)[C@H]1O, 10-membered ring, 0.4 mM, 0.33 h): 39% |
| CC(C)C[C@@H]1CCO[C@@H]2[C@H](CN[C@@H]2C(=O)N[C@@H]2C/C=C\C[C@H](CN3CCOCC3)S[C@H]3O[C@H]2[C@H](O)[C@H](O)[C@H]3O)C1 [FSA1607020, (4S,5aS,8S,8aR)-4-isobutyl-N-((1R,3R,8R,9R,10R,11S,12R,Z)-10,11,12-trihydroxy-3-(morpholinomethyl)-13-oxa-2-thiabicyclo[7.3.1]tridec-5-en-8-yl) octahydro-2H-oxepino[2,3-c]pyrrole-8-carboxamide formate salt] | 32 | 8 | 1 | 0.25 | 4 | 16 | > 64 | 4 | 16 | 16 | – |
| CC(C)C[C@@H]1CCO[C@@H]2[C@H](CN[C@@H]2C(=O)N[C@@H]2C/C=C\C[C@@H](CN3CCOCC3)S[C@H]3O[C@H]2[C@H](O)[C@H](O)[C@H]3O)C1 [FSA1607019, (4S,5aS,8S,8aR)-4-isobutyl-N-((1R,3S,8R,9R,10R,11S,12R,Z)-10,11,12-trihydroxy-3-(morpholinomethyl)-13-oxa-2-thiabicyclo[7.3.1]tridec-5-en-8-yl) octahydro-2H-oxepino[2,3-c]pyrrole-8-carboxamide formate salt] | 32 | 4 | 0.5 | 0.25 | 2 | 4 | > 64 | 4 | 16 | 8 | – |
| CC(C)C[C@@H]1CCO[C@@H]2[C@H](CN[C@@H]2C(=O)N[C@H]2[C@H]3O[C@H](SCCC/C=C/[C@H]2C)[C@H](O)[C@@H](O)[C@H]3O)C1 [FSA1609095, (4S,5aS,8S,8aR)-4-isobutyl-N-((1R,8R,9R,10R,11R,12S,13R,E)-11,12,13-trihydroxy-8-methyl-14-oxa-2-thiabicyclo[8.3.1]tetradec-6-en-9-yl) octahydro-2H-oxepino[2,3-c]pyrrole-8-carboxamide formate salt] | – | – | – | – | – | – | – | – | – | – | MIC A. baumannii ATCC 19606 ([2]; HAV#010, ATCC 19606, CaMHB, 24 h incubation, formate salt): 4 µg/mL; MIC E. coli ATCC 25922 ([3]; HAV#006, ATCC 25922, CaMHB, 24 h incubation, formate salt): 8 µg/mL; MIC E. coli lptD mutant ([4]; lptD mutant / ΔlptD mutant, formate salt): 0.5 µg/mL; MIC E. coli ΔtolC ([5]; ΔtolC, formate salt): 4 µg/mL; MIC E. faecalis ATCC 29212 ([6]; HAV#005, ATCC 29212, CaMHB, 24 h incubation, formate salt): 0.125 µg/mL; MIC E. faecium JMI-990536 ([7]; JMI-990536, CaMHB, 24 h incubation, formate salt): 2 µg/mL; MIC K. pneumoniae JMI-991193 ([8]; JMI-991193, CaMHB, 24 h incubation, formate salt): 16 µg/mL; MIC S. aureus ATCC 29213 ([9]; HAV#001, ATCC 29213, CaMHB, 24 h incubation, formate salt): ≤0.06 µg/mL; MIC S. aureus Clinical (cfr) ([10]; Clinical (cfr), CaMHB, 24 h incubation, formate salt): 8 µg/mL; MIC S. aureus MMX 3035 ([11]; MMX 3035, CaMHB, 24 h incubation, formate salt): 2 µg/mL |
| CC(C)C[C@@H]1CCO[C@@H]2[C@H](CN[C@@H]2C(=O)N[C@@H]2C/C=C/[C@H](CO)CSC3O[C@H]2C(O)C(O)[C@H]3O)C1 (single isomer, unassigned) [FSA1608025B, formate salt] | > 64 | > 64 | > 64 | > 64 | 32 | 32 | > 64 | 32 | > 64 | > 64 | – |
| C#C[C@@H]1C/C=C\C[C@@H](NC(=O)[C@H]2NC[C@@H]3C[C@H](CC(C)C)CCO[C@H]32)[C@H]2O[C@H](S1)[C@H](O)[C@@H](O)[C@H]2O [FSA1607077, (4S,5aS,8S,8aR)—N-((1R,3S,8R,9R,10R,11S,12R,Z)-3-ethynyl-10,11,12-trihydroxy-13-oxa-2-thiabicyclo[7.3.1]tridec-5-en-8-yl)-4-isobutyloctahydro-2H-oxepino[2,3-c]pyrrole-8-carboxamide formate salt] | – | – | 1 | 1 | – | – | – | – | – | – | MIC [2]: 8 µg/mL; MIC [3]: 4 µg/mL; MIC [6]: ≤ 0.125 µg/mL; MIC [7]: 2 µg/mL; MIC [8]: 16 µg/mL; MIC [9]: ≤ 0.125 µg/mL; MIC [10]: 16 µg/mL; MIC [11]: 4 µg/mL |
| CC(C)C[C@@H]1CCO[C@@H]2[C@H](CN[C@@H]2C(=O)N[C@@H]2C/C=C\C[C@@H](C(F)F)S[C@H]3O[C@H]2[C@H](O)[C@H](O)[C@H]3O)C1 [FSA1607044, (4S,5aS,8S,8aR)—N-((1R,3S,8R,9R,10R,11S,12R,Z)-3-(difluoromethyl)-10,11,12-trihydroxy-13-oxa-2-thiabicyclo[7.3.1]tridec-5-en-8-yl)-4-isobutyloctahydro-2H-oxepino[2,3-c]pyrrole-8-carboxamide formate salt] | – | – | 2 | 0.5 | – | – | – | – | – | – | MIC [2]: 8 µg/mL; MIC [3]: 8 µg/mL; MIC [6]: 0.125 µg/mL; MIC [7]: 1 µg/mL; MIC [8]: 16 µg/mL; MIC [9]: 0.125 µg/mL; MIC [10]: 16 µg/mL; MIC [11]: 2 µg/mL |

Source: US20250270246A1, “LINCOSAMIDES AND USES THEREOF” (President and Fellows of Harvard College, priority 2022, published 2025)
